Key:
hSGLT5 Asn96Ile [1] = target: T1, hSGLT5 Asn96Ile (Homo sapiens, UniProt A0PJK1, N96I); test: 1,5-AG uptake in HEK293T cells overexpressing SGLT5 variant Asn96Ile; format: cell-based
T1 construct: pUB83-hSGLT5-iso2 as well as the various SGLT5 mutants obtained were used to transduce HEK293T cells; expressed in transfected cells; host or cells: HEK293T, lentiviral transduction (pUB83)
T1 sequence (A0PJK1 1-596 N96I): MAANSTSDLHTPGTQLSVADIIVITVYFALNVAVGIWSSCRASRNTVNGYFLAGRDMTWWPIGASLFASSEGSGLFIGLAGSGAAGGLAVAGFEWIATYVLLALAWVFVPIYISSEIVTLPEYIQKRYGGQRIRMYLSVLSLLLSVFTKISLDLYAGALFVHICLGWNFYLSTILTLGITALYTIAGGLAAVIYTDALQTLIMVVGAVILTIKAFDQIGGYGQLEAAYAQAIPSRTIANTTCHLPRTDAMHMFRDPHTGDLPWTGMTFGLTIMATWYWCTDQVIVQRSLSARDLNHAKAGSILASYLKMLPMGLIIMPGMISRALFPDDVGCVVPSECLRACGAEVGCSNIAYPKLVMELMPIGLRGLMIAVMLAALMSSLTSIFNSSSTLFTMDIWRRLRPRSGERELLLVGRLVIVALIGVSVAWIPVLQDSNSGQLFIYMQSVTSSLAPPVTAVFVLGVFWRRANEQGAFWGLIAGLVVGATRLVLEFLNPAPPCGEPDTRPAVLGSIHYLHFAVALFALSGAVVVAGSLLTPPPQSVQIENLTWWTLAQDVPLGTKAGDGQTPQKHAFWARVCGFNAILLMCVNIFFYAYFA
Procedure: For a typical transporter experiment we proceeded as follows. […] To minimize cell loss during the various washing steps in the radioactive uptake experiments, the wells where the cells were seeded were previously coated with poly- D-lysine, which improved their adhesion to the plastic surface of the wells. For this, each well of the 24-well plates was treated with 200 µl of a 0.01% poly-L-lysine solution for 10 min, washed 3 times with 1 ml of sterilized water and left to dry for 2 h. Only then could the 24-well plates be seeded with the appropriate cell lines and cultured overnight at 37 °C in 5% CO2.
On day two, the radioactive uptake assay could be performed. The cell culture media was removed by aspiration and cells were incubated for 20 min at 37 °C and 5% CO2 with a basal medium (10 mM HEPES, pH 7.4, 1 mM CaCl2, 1 mM MgCl2, 2 mM KCl) containing 140 mM choline chloride to deplete intracellular Na^2+ ions. […]
Once the uptake medium was added to the cells, the plates were incubated at 37 °C in 5% CO2 during the required time. […] In each experiment, the transport activities were calculated after subtracting a “blank” value, corresponding to the radioactivity in the appropriate control cells (HEK293T cells that were stably or transiently transfected with one of the parent plasmids pEF6/MycHisA, pEF6HisB, pUB82 or pUB83 with no inserted cDNA) that were analyzed in parallel. […]

hSGLT5 Asn96Ile [2] = target: T1, hSGLT5 Asn96Ile; test: Inhibition of 10 µM 1,5-AG transport by SGLT5 variant Asn96Ile; format: cell-based; conditions: mutation Asn96Ile versus SGLT5, Fig. 5D
Procedure: The transport experiments to study the specificity of SGLT4 or SGLT5, were performed in the presence of 10 µM U-[^14C + ^12C]-mannose (for SGLT4) or 2-[^3H + ^1H]-1,5-AG (for SGLT5) and increasing concentrations of various sugars tested. The transport experiments to study the inhibition of empagliflozin, dapagliflozin or remogliflozin, on the transport of 1,5-AG by SGLT5 or its variants were performed in the presence of 10 µM 2-[^3H + ^1H]-1,5-AG and increasing concentrations of the various gliflozins tested.
SGLT5 mutants were created using the quick-change site directed mutagenesis method that enables effective mutagenesis without subcloning of the amplified PCR products. Complementary primer pairs carrying the desired replacements (Supplementary Table 3) were designed using an online tool (https://www.agilent.com/store/primerDesignProgram.jsp). The PCR protocol was carried out following the manufacturer instructions regarding the KOD HOT Start polymerase kit (TOYOBO™, Novagen). The amplified DNA was cleaned-up from the reactions constituents using the GeneJET PCR purification Kit (Thermo Scientific™) and the size of the DNA fragment were verified by DNA agarose-gel electrophoresis. […]

Compound | Vmax (hSGLT5 Asn96Ile [1]) | reduction of transport efficiency compared to SGLT5 (hSGLT5 Asn96Ile [1]) | effect of mutation on inhibition exerted by empagliflozin (hSGLT5 Asn96Ile [2])
OC[C@H]1OC[C@H](O)[C@@H](O)[C@@H]1O [1,5-AG, 1,5-anhydroglucitol] | 19.5 ± 3 pmol/min/10^5cells | sixfold | 
OC[C@H]1O[C@@H](c2ccc(Cl)c(Cc3ccc(O[C@H]4CCOC4)cc3)c2)[C@H](O)[C@@H](O)[C@@H]1O [empagliflozin] |  |  | considerably decreased (by more than tenfold)
